The numbers were not newly measured in patent US20140227392A1, “BEER AND RELEVANT PRODUCTION METHOD” (FARCHIONI OLII - S.P.A., priority 2011, published 2014), which cites them from elsewhere.

The conditions of this data set: compared with its precursor daidzein.

For `Oc1ccc([C@H]2COc3cc(O)ccc3C2)cc1` [S-(−) equol], the antioxidant activity entry is “significantly greater in antioxidant activity than its precursor”.
